Reference: patent US4965280A, “Antifungal carbinols” (E. I. Du Pont de Nemours and Company, priority 1989, dated 1990)
Values after ≈ are worked out from the molar mass of the structure shown. Like-named read-outs stand apart in the source and are kept apart here.

Experiments:
[1] = tested on: Candida albicans ATCC 11651; assay: In vivo systemic Candida infection in mice, primary assay; parameters: species or system Candida albicans; CF-1 female mice; details: Candida albicans, 150 mg/kg per day, read-out: % Survival
Outline: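 CF-1 female mice (20 g, 10 per group) were infected IV with 0.2 ml of 1×10^7/ml C. albicans ATCC 11651, then given test compound subcutaneously at 50 or 150 mg/kg/day at 1 and 6 h post-infection and once daily for three more days. Survival was followed for 21 days against infected untreated mice; ≥70% protection at 14 days was scored active.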

Rhizoctonia solani [2] = assay: Example F rice sheath blight; assay type: in vivo; details: Rhizoctonia solani, 144 h, 100 PPM; read-out: disease control rating, Ex. F
Outline: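 Foliar run-off spray, rice seedlings: compound at 100 or 20 ppm in aqueous 250 ppm polyhydric alcohol ester surfactant, acetone 6% v/v final.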

Pythium aphanadermatum = assay: Example J cucumber damping off; assay type: in vivo; parameters: key to phytotoxicity entry, Ex. J: P: disease control was not measured due to phytoxicity; details: 5 kg/ha; for pest or weed control at 5000 g/ha: Pythium, 336 h, read-out: disease control rating, Ex. J
Outline: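 Seeds and soil were inoculated with a mix of sand, cereal and Pythium aphanadermatum mycelium, the fungus responsible for cucumber damping off. They were kept in a growth chamber at 30° C. for 14 days, and disease was then rated to assess control.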

Rhizoctonia solani [3] = assay: Example K cotton blight; assay type: in vivo; details: 336 h, 5 kg/ha, read-out: disease control rating, Ex. K
Experimental: […] Seeds and soil were then inoculated with a mixture of sand, cereal and mycelium of the fungus Rhizoctonia solani, causal agent of cotton blight, and incubated in a growth chamber at 30° C. for 14 days. Disease ratings were then made.

REDROOT PIGWEED = assay: Test E; assay type: in vivo, Amaranthus retroflexus
WILD BUCKWHEAT = assay: Test E; assay type: in vivo, Polygonum convolvulus
GREEN FOXTAIL = assay: Test E; assay type: in vivo, Setaria viridis
[4] = tested on: Candida albicans ATCC 11651; assay: In vitro antifungal MIC, microtiter broth dilution; details: Candida albicans, ATCC11651, 24 h, read-out: MIC values, C. albicans, 30°, 24 hours
SCIRPUS = assay: Test C rice paddy; assay type: in vivo, Scirpus paludosus; details: Bolboschoenus maritimus, 504 h, 21 days, read-out: plant response; for pest or weed control at 64 g/ha: 0064 G/HA; for pest or weed control at 125 g/ha: 0125 G/HA; for pest or weed control at 250 g/ha: 0250 G/HA; for pest or weed control at 500 g/ha: 0500 G/HA
Excerpt: (§1) Sixteen cm diameter Airlite plastic pots were partially filled with Tama slit loam soil and the soil saturated with water. Japonica and Indica rice seedlings a the 2.0 to 2.5 leaf stage were transplanted into 1/3 of the pots. Into another third of the pots were transplanted seedling or sprouted tubers of water plantain (Alisma trivale), Scripus (Scirpus paludosus), Cyperus (Cyperus esculentus), and arrowhead (Sagittaria spp.). The remaining pots were planted with barnyardgrass (Echinochloa crusgalli) seeds and sprouted tubes of water chestnut (Eleocharis spp.). These weeds all represent major rice weeds or genera of weeds important in rice. Three to four days after planting, the water level was raised to 3 cm (about 1200 ml/pot) and maintained a this level throughout the test. Chemical treatments were applied directly to the paddy water, within 24 hours of raising the water, after being formulated in a nonphytotoxic solvent. The pots were maintained in the greenhouse.

YELLOW NUTSEDGE = assay: Test C rice paddy; assay type: in vivo, Cyperus esculentus; details: 21 days
Excerpt: as §1

SMILES	responders at 150 mg/kg ([1]; ATCC11651, 168 h, day 7)	responders at 150 mg/kg ([1]; ATCC11651, 336 h, day 14)	pest or weed control at 100 ppm (Rhizoctonia solani [2])	pest or weed control at 5000 g/ha (Pythium aphanadermatum)	pest or weed control at 5000 g/ha (Rhizoctonia solani [3])	plant response (REDROOT PIGWEED; POSTEMERGENCE 0064 GM/HA)	plant response (REDROOT PIGWEED; POSTEMERGENCE 0125 GM/HA)	plant response (REDROOT PIGWEED; POSTEMERGENCE 0250 GM/HA)	plant response (REDROOT PIGWEED; POSTEMERGENCE 0500 GM/HA)	MIC [4]	pest or weed control at 64 g/ha (SCIRPUS)	pest or weed control at 125 g/ha (SCIRPUS)	pest or weed control at 250 g/ha (SCIRPUS)	pest or weed control at 500 g/ha (SCIRPUS)	pest or weed control at 1000 g/ha (SCIRPUS)	plant response (YELLOW NUTSEDGE; 0064 G/HA)	plant response (YELLOW NUTSEDGE; 0125 G/HA)	plant response (YELLOW NUTSEDGE; 0250 G/HA)	plant response (YELLOW NUTSEDGE; 0500 G/HA)	plant response (YELLOW NUTSEDGE; 1000 G/HA)	also measured
C=C(c1ccc(F)cc1)C(O)(Cn1cncn1)c1ccc(F)cc1F (stereo not shown) [Example 4, 2-(2,4-Difluorophenyl)-3-(4-fluorophenyl)-1-(1H-1,2,4-triazol-1-yl)-3-buten-2-ol]	100%	50%	100%	0%	0%	20%	40%	90%	90%	0.03 µg/mL (≈ 0.0869 µM)											plant response (REDROOT PIGWEED; PREEMERGENCE 0500 GM/HA): 100%; plant response (WILD BUCKWHEAT; POSTEMERGENCE 0064 GM/HA): 0%; plant response (WILD BUCKWHEAT; POSTEMERGENCE 0125 GM/HA): 0%; plant response (WILD BUCKWHEAT; POSTEMERGENCE 0250 GM/HA): 40%; plant response (WILD BUCKWHEAT; POSTEMERGENCE 0500 GM/HA): 70%; plant response (WILD BUCKWHEAT; PREEMERGENCE 0500 GM/HA): 40%; plant response (GREEN FOXTAIL; POSTEMERGENCE 0064 GM/HA): 0%; plant response (GREEN FOXTAIL; POSTEMERGENCE 0125 GM/HA): 20%; plant response (GREEN FOXTAIL; POSTEMERGENCE 0250 GM/HA): 20%; plant response (GREEN FOXTAIL; POSTEMERGENCE 0500 GM/HA): 80%; plant response (GREEN FOXTAIL; PREEMERGENCE 0500 GM/HA): 100%
C=C(c1ccccc1)C(O)(Cn1cncn1)c1ccc(Cl)cc1 (stereo not shown) [Example 51, 2-(4-Chlorophenyl)-3-phenyl-1-(1H-1,2,4-triazol-1-yl)-3-buten-2-ol]	100%	100%	100%			30%	50%	60%	90%	0.03 µg/mL (≈ 0.0921 µM)											responders at 150 mg/kg ([1]; ATCC11651, 504 h, day 21): 80%; phytotoxicity entry, Ex. J (Pythium aphanadermatum): P; plant response (REDROOT PIGWEED; PREEMERGENCE 0500 GM/HA): 70%; plant response (WILD BUCKWHEAT; POSTEMERGENCE 0064 GM/HA): 0%; plant response (WILD BUCKWHEAT; POSTEMERGENCE 0125 GM/HA): 0%; plant response (WILD BUCKWHEAT; POSTEMERGENCE 0250 GM/HA): 0%; plant response (WILD BUCKWHEAT; POSTEMERGENCE 0500 GM/HA): 0%; plant response (WILD BUCKWHEAT; PREEMERGENCE 0500 GM/HA): 0%; plant response (GREEN FOXTAIL; POSTEMERGENCE 0064 GM/HA): 0%; plant response (GREEN FOXTAIL; POSTEMERGENCE 0125 GM/HA): 0%; plant response (GREEN FOXTAIL; POSTEMERGENCE 0250 GM/HA): 0%; plant response (GREEN FOXTAIL; POSTEMERGENCE 0500 GM/HA): 0%; plant response (GREEN FOXTAIL; PREEMERGENCE 0500 GM/HA): 100%
C=C(c1ccc(Cl)cc1)C(O)(Cn1cncn1)c1ccccc1F (stereo not shown) [Example 669]	100%	100%	100%	0%	0%					0.03 µg/mL (≈ 0.0873 µM)	0%	0%	0%	0%	30%	0	0	0	60	80	responders at 150 mg/kg ([1]; ATCC11651, 504 h, day 21): 100%
C=C(c1ccc(F)cc1)C(O)(Cn1ncnc1I)c1ccc(F)cc1F (stereo not shown) [Example 1381]			73%	0%	50%						0%	0%	0%	0%	30%	0	0	0	40	50	
C=C(c1ccc(Cl)cc1Cl)C(O)(Cn1cncn1)c1ccccc1F (stereo not shown) [Example 107]											0%	0%	60%	80%	80%	0	0	50	30	95	plant response (REDROOT PIGWEED; PREEMERGENCE 0250 GM/HA): 100%; plant response (WILD BUCKWHEAT; PREEMERGENCE 0250 GM/HA): 0%; plant response (GREEN FOXTAIL; PREEMERGENCE 0250 GM/HA): 100%
